Measured values from PubChem BioAssay (NCI).
“And” between values parts separate entries of the source, which are not always exact repeats. Equal entries are not always repeated.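 Dose response: 5 concentrations. Exposure: 48 h. Format: 96-well plates. Endpoint: linear interpolation; highest concentration if not reached. GI50: concentration for 50% inhibition of growth. TGI is the concentration that stops growth completely.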

What was measured:
Experiment in all cases: NCI-60 cell line screen, 48 h
SF-295 CNS = test system: SF-295 CNS
MCF7 breast = test system: MCF7 breast
HL-60(TB) leukemia = test system: HL-60(TB) leukemia
SNB-19 CNS = test system: SNB-19 CNS
MALME-3M melanoma = test system: MALME-3M melanoma
HCT-15 colon = test system: HCT-15 colon
NCI-H522 lung = test system: NCI-H522 lung
NCI/ADR-RES ovarian = test system: NCI/ADR-RES ovarian
TK-10 renal = test system: TK-10 renal
HS 578T breast = test system: HS 578T breast
UACC-257 melanoma = test system: UACC-257 melanoma
SK-OV-3 ovarian = test system: SK-OV-3 ovarian
PC-3 prostate = test system: PC-3 prostate
SK-MEL-2 melanoma = test system: SK-MEL-2 melanoma
UO-31 renal = test system: UO-31 renal
OVCAR-4 ovarian = test system: OVCAR-4 ovarian
RPMI-8226 leukemia = test system: RPMI-8226 leukemia
NCI-H23 lung = test system: NCI-H23 lung
HT29 colon = test system: HT29 colon
MOLT-4 leukemia = test system: MOLT-4 leukemia
SW-620 colon = test system: SW-620 colon
M14 melanoma = test system: M14 melanoma
NCI-H460 lung = test system: NCI-H460 lung
ACHN renal = test system: ACHN renal
BT-549 breast = test system: BT-549 breast
SF-539 CNS = test system: SF-539 CNS
MDA-MB-231 breast = test system: MDA-MB-231 breast
CCRF-CEM leukemia = test system: CCRF-CEM leukemia
HOP-62 NSCLC = test system: HOP-62 NSCLC
IGROV1 ovarian = test system: IGROV1 ovarian
DU-145 prostate = test system: DU-145 prostate
UACC-62 melanoma = test system: UACC-62 melanoma
HCC-2998 colon = test system: HCC-2998 colon
SR leukemia = test system: SR leukemia
EKVX NSCLC = test system: EKVX NSCLC
OVCAR-5 ovarian = test system: OVCAR-5 ovarian
SK-MEL-5 melanoma = test system: SK-MEL-5 melanoma
A549 NSCLC = test system: A549 NSCLC
SN12C renal = test system: SN12C renal
U251 CNS = test system: U251 CNS
HOP-92 NSCLC = test system: HOP-92 NSCLC
SK-MEL-28 melanoma = test system: SK-MEL-28 melanoma
K-562 leukemia = test system: K-562 leukemia
T-47D breast = test system: T-47D breast
786-0 renal = test system: 786-0 renal
HCT-116 colon = test system: HCT-116 colon
LOX IMVI melanoma = test system: LOX IMVI melanoma
KM12 colon = test system: KM12 colon
SNB-75 CNS = test system: SNB-75 CNS
MDA-MB-435 = test system: MDA-MB-435
OVCAR-8 ovarian = test system: OVCAR-8 ovarian
SF-268 CNS = test system: SF-268 CNS
NCI-H226 lung = test system: NCI-H226 lung
RXF 393 renal = test system: RXF 393 renal
COLO 205 colon = test system: COLO 205 colon
CAKI-1 renal = test system: CAKI-1 renal
OVCAR-3 ovarian = test system: OVCAR-3 ovarian

## COC(=O)[C@@H](C)C[C@H](Cc1ccccc1)NC(=O)c1cccc([C@@H](C[C@H](C(C)C)N(C)C(=O)[C@@H](NC(=O)[C@H]2CCCCN2C)C2CC2)OC(C)=O)n1
SF-295 CNS
  GI50: 0.0363 µM
  TGI: > 100 µM
MCF7 breast
  GI50: 0.00333 µM
  TGI: 33.3 µM and > 100 µM
HL-60(TB) leukemia
  TGI: 0.0111 µM
SNB-19 CNS
  GI50: 0.00333 µM
  TGI: 33.3 µM and > 100 µM
MALME-3M melanoma
  TGI: 33.3 µM and > 100 µM
HCT-15 colon
  TGI: 20.6 µM and > 100 µM
NCI-H522 lung
  TGI: 37.3 µM
NCI/ADR-RES ovarian
  GI50: 5.06 µM and 4.67 µM
  TGI: 33.3 µM and > 100 µM
TK-10 renal
  TGI: 33.3 µM and > 100 µM
HS 578T breast
  TGI: 33.3 µM and > 100 µM
UACC-257 melanoma
  GI50: > 100 µM
  TGI: > 100 µM
SK-OV-3 ovarian
  GI50: 0.00333 µM and 0.0265 µM
  TGI: 33.3 µM and > 100 µM
PC-3 prostate
  GI50: 0.00333 µM and 0.0223 µM
  TGI: 33.3 µM and > 100 µM
SK-MEL-2 melanoma
  GI50: 0.00333 µM
  TGI: 33.3 µM and > 100 µM
UO-31 renal
  GI50: 0.0766 µM
  TGI: 33.3 µM
OVCAR-4 ovarian
  TGI: 33.3 µM and > 100 µM
RPMI-8226 leukemia
  GI50: 0.00333 µM
  TGI: 7.63 µM and 55.6 µM
NCI-H23 lung
  TGI: 33.3 µM and > 100 µM
HT29 colon
  GI50: 0.00333 µM
MOLT-4 leukemia
  TGI: 33.3 µM and > 100 µM
SW-620 colon
  GI50: 0.00333 µM
  TGI: 33.3 µM and > 100 µM
M14 melanoma
  TGI: 0.0358 µM
NCI-H460 lung
  GI50: 0.00333 µM and 0.0297 µM
  TGI: 33.3 µM and > 100 µM
ACHN renal
  TGI: 33.3 µM and > 100 µM
BT-549 breast
  GI50: 0.00333 µM
SF-539 CNS
  GI50: 0.02 µM
  TGI: 0.0764 µM
MDA-MB-231 breast
  GI50: 0.00333 µM and 0.0281 µM
  TGI: 4.35 µM and 24 µM
CCRF-CEM leukemia
  GI50: 0.00333 µM and 0.0234 µM
  TGI: 33.3 µM and > 100 µM
HOP-62 NSCLC
  GI50: 0.00333 µM and 0.0296 µM
IGROV1 ovarian
  GI50: 0.00333 µM
  TGI: 33.3 µM and > 100 µM
DU-145 prostate
  GI50: 0.00333 µM
  TGI: 33.3 µM and > 100 µM
UACC-62 melanoma
  GI50: 0.00333 µM
  TGI: 33.3 µM
HCC-2998 colon
  TGI: 33.3 µM and > 100 µM
SR leukemia
  GI50: 0.00333 µM
  TGI: 33.3 µM and 69.9 µM
EKVX NSCLC
  TGI: 33.3 µM and > 100 µM
OVCAR-5 ovarian
  TGI: 33.3 µM and > 100 µM
SK-MEL-5 melanoma
  TGI: 1.14 µM
A549 NSCLC
  TGI: 33.3 µM and > 100 µM
SN12C renal
  TGI: 33.3 µM and > 100 µM
U251 CNS
  TGI: 33.3 µM and > 100 µM
HOP-92 NSCLC
  TGI: 13.6 µM and 86.6 µM
SK-MEL-28 melanoma
  GI50: 5.03 µM
  TGI: 33.3 µM
K-562 leukemia
  GI50: 0.00333 µM
  TGI: 33.3 µM and > 100 µM
T-47D breast
  GI50: > 33.3 µM
  TGI: > 33.3 µM
786-0 renal
  TGI: 11.3 µM and > 100 µM
HCT-116 colon
  GI50: 0.00333 µM
  TGI: 3.98 µM and 14.4 µM
LOX IMVI melanoma
  GI50: 0.00333 µM and 0.019 µM
  TGI: 33.3 µM and > 100 µM
KM12 colon
  GI50: 0.00333 µM and 0.0298 µM
  TGI: 33.3 µM and > 100 µM
SNB-75 CNS
  TGI: 33.3 µM and > 100 µM
MDA-MB-435
  TGI: 0.0143 µM
OVCAR-8 ovarian
  TGI: 33.3 µM and > 100 µM
SF-268 CNS
  TGI: 33.3 µM and > 100 µM
NCI-H226 lung
  TGI: 33.3 µM and > 100 µM

## COC(=O)C1=C(OC(=O)c2ccccc2)C(C(=O)OC)[C@]2(O)[C@@H](C(=O)OC)C1CC(c1ccccc1OC)[C@@H]2C(=O)OC (stereo partly drawn)
SF-295 CNS
  GI50: 5.41 µM
  TGI: > 100 µM
MCF7 breast
  GI50: 77.5 µM
  TGI: > 100 µM
RXF 393 renal
  GI50: 2.53 µM
  TGI: 8.65 µM
HL-60(TB) leukemia
  GI50: 14.7 µM
  TGI: 67.1 µM
SNB-19 CNS
  GI50: 25.1 µM
  TGI: > 100 µM
HCT-15 colon
  GI50: 30.1 µM
  TGI: > 100 µM
NCI-H522 lung
  GI50: 8.93 µM
  TGI: > 100 µM
NCI/ADR-RES ovarian
  GI50: 21 µM
  TGI: 55.5 µM
TK-10 renal
  GI50: 26.5 µM
  TGI: > 100 µM
HS 578T breast
  GI50: 5.98 µM
  TGI: 83.4 µM
COLO 205 colon
  GI50: 15.5 µM
  TGI: > 100 µM
UACC-257 melanoma
  GI50: 5.37 µM
  TGI: 34.8 µM
SK-OV-3 ovarian
  GI50: 5.62 µM
  TGI: > 100 µM
PC-3 prostate
  GI50: 9.08 µM
  TGI: 69.2 µM
SK-MEL-2 melanoma
  GI50: 36.2 µM
  TGI: > 100 µM
CAKI-1 renal
  GI50: 3.99 µM
  TGI: > 100 µM
UO-31 renal
  GI50: 13.9 µM
  TGI: 50.5 µM
OVCAR-4 ovarian
  GI50: 4.75 µM
  TGI: > 100 µM
RPMI-8226 leukemia
  GI50: 6.17 µM
  TGI: 38.2 µM
NCI-H23 lung
  GI50: 24.2 µM
  TGI: 72.7 µM
HT29 colon
  GI50: 22.2 µM
  TGI: > 100 µM
OVCAR-3 ovarian
  GI50: 2.55 µM
  TGI: > 100 µM
MOLT-4 leukemia
  GI50: 5.52 µM
  TGI: 37.8 µM
SW-620 colon
  GI50: 15.3 µM
  TGI: > 100 µM
M14 melanoma
  GI50: 18.6 µM
  TGI: 50.8 µM
NCI-H460 lung
  GI50: 50.9 µM
  TGI: > 100 µM
ACHN renal
  GI50: 41.9 µM
  TGI: > 100 µM
BT-549 breast
  GI50: 5.58 µM
  TGI: 83.6 µM
SF-539 CNS
  GI50: 3.45 µM
  TGI: 10.8 µM
MDA-MB-231 breast
  GI50: 14.7 µM
  TGI: 60.2 µM
HOP-62 NSCLC
  GI50: 38.3 µM
  TGI: > 100 µM
IGROV1 ovarian
  GI50: 44.5 µM
  TGI: > 100 µM
DU-145 prostate
  GI50: 5.51 µM
  TGI: > 100 µM
UACC-62 melanoma
  GI50: 4.59 µM
  TGI: 23.2 µM
HCC-2998 colon
  GI50: 17.6 µM
  TGI: 34.1 µM
SR leukemia
  GI50: 1.54 µM
  TGI: 5.16 µM
EKVX NSCLC
  GI50: 4.02 µM
  TGI: 35.3 µM
OVCAR-5 ovarian
  GI50: 41.5 µM
  TGI: > 100 µM
SK-MEL-5 melanoma
  GI50: 4.09 µM
  TGI: 20.5 µM
A549 NSCLC
  GI50: 12.9 µM
  TGI: 77.9 µM
SN12C renal
  GI50: 10.2 µM
  TGI: 51.5 µM
U251 CNS
  GI50: 37.9 µM
  TGI: > 100 µM
HOP-92 NSCLC
  GI50: 2.69 µM
  TGI: 31 µM
SK-MEL-28 melanoma
  GI50: 23.2 µM
  TGI: > 100 µM
K-562 leukemia
  GI50: 17.6 µM
  TGI: > 100 µM
T-47D breast
  GI50: 22 µM
  TGI: > 100 µM
786-0 renal
  GI50: 30.8 µM
  TGI: > 100 µM
HCT-116 colon
  GI50: 13.9 µM
  TGI: 52.8 µM
LOX IMVI melanoma
  GI50: 39.2 µM
  TGI: > 100 µM
KM12 colon
  GI50: 7.9 µM
  TGI: > 100 µM
SNB-75 CNS
  GI50: 10.7 µM
  TGI: > 100 µM
MDA-MB-435
  GI50: 1.89 µM
  TGI: 4.4 µM
OVCAR-8 ovarian
  GI50: 18.4 µM
  TGI: > 100 µM
SF-268 CNS
  GI50: > 100 µM
  TGI: > 100 µM
NCI-H226 lung
  GI50: 15.2 µM
  TGI: 80.7 µM
